Experimental data from US20020137929A1, “1 - (3-heterocyclylphenyl) isothiourea, -isourea, -guanidine and -amidine herbicidal agents” (Intellectual Property Department, BASF Aktiengesellschaft, priority 1998, published 2002).

Legend:
[1] = system: SAGPY (Arrowhead (Pygmaea)); assay: Preemergence weed control under flooded paddy conditions; type: in vivo, Sagittaria pygmaea; conditions: 0.2500 kg/ha, rated 3-4 weeks after treatment
Summary of the method: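 Visual injury scored 0-9 against control three to four weeks post-treatment, greenhouse-grown. Application: acetone/water (50/50) solutions dosed directly into flood water (1.5-3 cm over silt loam, planted top 0.5 cm), roughly 0.0313 to 0.500 kg/ha active ingredient.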

[2] = system: ORYSAT (Rice, Tebonnet); assay: Postemergence herbicidal evaluation; type: in vivo, Oryza sativa, (L.) Tebonnet; conditions: postemergence
Summary of the method: (§1)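 Seedlings grown about two weeks were sprayed at 40 psi with compound dispersed in 50/50 acetone/water plus 0.5% TWEEN 20, at about 0.0156 to 0.500 kg/ha. Plants were kept in the greenhouse and scored 4–5 weeks later on a 0–9 visual scale against untreated controls.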

[3] = system: GALAP (Galium); assay: Preemergence herbicidal evaluation; type: in vivo, Galium aparine; conditions: rated 4-5 weeks after treatment, rating scale 0-9
Summary of the method: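 Rating at 4–5 wk post-spray on a 0–9 visual scale vs control. Application: aqueous acetone, ~0.0156–0.500 kg/ha, to soil surface after seeding, preemergence.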

[4] = system: CYPIR (Rice Flatsedge); assay: Preemergence weed control under flooded paddy conditions; type: in vivo, Cyperus iria; conditions: 0.2500 kg/ha, rated 3-4 weeks after treatment
Summary of the method: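 Silt loam, seeds in top 0.5 cm; flood held 1.5-3 cm; test cpd as acetone/water 50/50 into flood water, ~0.0313-0.500 kg/ha a.i.; greenhouse 3-4 wk; visual 0-9 score vs control.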

[5] = system: GALAP (Galium); assay: Postemergence herbicidal evaluation; type: in vivo, Galium aparine; conditions: postemergence
Summary of the method: as §1

[6] = system: SETVI (Foxtail, Green); assay: Postemergence herbicidal evaluation; type: in vivo, Setaria viridis; conditions: postemergence
Summary of the method: as §1

[7] = system: ECHCG (Barnyardgrass); assay: Postemergence herbicidal evaluation; type: in vivo, Echinochloa crus-galli; conditions: postemergence
Summary of the method: as §1

[8] = system: AMBEL (Ragweed, Common); assay: Postemergence herbicidal evaluation; type: in vivo, Ambrosia artemisifolia; conditions: postemergence
Summary of the method: as §1

[9] = system: CHEAL (Lambsquarters, Common); assay: Postemergence herbicidal evaluation; type: in vivo, Chenopodium album; conditions: postemergence
Summary of the method: as §1

[10] = system: GLXMAW (Soybean, Williams); assay: Postemergence herbicidal evaluation; type: in vivo, Glycine max, (L.) Merr. cv Williams; conditions: postemergence
Summary of the method: as §1

[11] = system: CASOB (Sicklepod); assay: Postemergence herbicidal evaluation; type: in vivo, Cassia obtusifolia; conditions: postemergence
Summary of the method: as §1

[12] = system: ZEAMX (Corn, Field); assay: Preemergence herbicidal evaluation; type: in vivo, Zea mays; conditions: rated 4-5 weeks after treatment, rating scale 0-9
Text: (§2) Results of herbicide evaluation are expressed on a rating scale (0-9). The scale is based upon a visual observation of plant stand, vigor, malformation, size, chlorosis and overall plant appearance as compared with a control.
(§3) The preemergence herbicidal activity of the test compounds of the present invention is exemplified by the following tests in which the seeds of a variety of monocotyledonous and dicotyledonous plants are separately mixed with potting soil and planted on top of approximately one inch of soil in separate pint cups. After planting, the cups are sprayed with the selected aqueous acetone solution containing test compound in sufficient quantity to provide the equivalent of about 0.0156 to 0.500 kg per hectare of test compound per cup. The treated cups are then placed on greenhouse benches, watered and cared for in accordance with conventional greenhouse procedures. From four to five weeks after treatment, the tests are terminated and each cup is examined and rated according to the rating system provided in Example 37.
(§4) The compounds evaluated are reported by compound number given in Example 37.

[13] = system: CASOB (Sicklepod); assay: Preemergence herbicidal evaluation; type: in vivo, Cassia obtusifolia; conditions: rated 4-5 weeks after treatment, rating scale 0-9
Text: as §2, §3, §4

| SMILES | herbicidal effect rating, SAGPY [1] | herbicidal rating ORYSAT ([2]; rate 0.0156 kg/ha) | herbicidal rating ORYSAT ([2]; rate 0.0313 kg/ha) | herbicidal rating ORYSAT ([2]; rate 0.0625 kg/ha) | Preemergence herbicidal rating GALAP ([3]; rate 0.1250 kg/ha) | Preemergence herbicidal rating GALAP ([3]; rate 0.2500 kg/ha) | herbicidal effect rating, CYPIR [4] | herbicidal rating GALAP ([5]; rate 0.0156 kg/ha) | herbicidal rating GALAP ([5]; rate 0.0313 kg/ha) | herbicidal rating GALAP ([5]; rate 0.0625 kg/ha) | herbicidal rating SETVI ([6]; rate 0.0156 kg/ha) | herbicidal rating SETVI ([6]; rate 0.0313 kg/ha) | herbicidal rating SETVI ([6]; rate 0.0625 kg/ha) | herbicidal rating ECHCG ([7]; rate 0.0156 kg/ha) | herbicidal rating ECHCG ([7]; rate 0.0313 kg/ha) | herbicidal rating ECHCG ([7]; rate 0.0625 kg/ha) | herbicidal rating AMBEL ([8]; rate 0.0156 kg/ha) | herbicidal rating AMBEL ([8]; rate 0.0313 kg/ha) | herbicidal rating AMBEL ([8]; rate 0.0625 kg/ha) | herbicidal rating CHEAL ([9]; rate 0.0156 kg/ha) | further results |
| --- | --- | --- | --- | --- | --- | --- | --- | --- | --- | --- | --- | --- | --- | --- | --- | --- | --- | --- | --- | --- | --- |
| COc1ccc(CN2C(=O)CSC2=Nc2cc(-n3c(=O)cc(C(F)(F)F)n(C)c3=O)c(F)cc2Cl)cc1OC [Compound 134, 3-{4-Chloro-5-{[3-(3,4-dimethoxybenzyl)-4-oxo-2-thiazolidinylidene]amino}-2-fluorophenyl}-1-methyl-6-(trifluoromethyl)-2,4(1H,3H)-pyrimidinedione] | 0.0 | 1.0 | 1.5 | 2.0 | 1.0 | 0.0 | 3.0 | 0.0 | 1.0 | 2.0 | 0.0 | 0.0 | 1.0 | 0.0 | 2.0 | 1.0 | 3.0 | 4.0 | 7.0 | 1.0 | herbicidal rating CHEAL ([9]; rate 0.0313 kg/ha): 3.0; herbicidal rating CHEAL ([9]; rate 0.0625 kg/ha): 4.0; herbicidal rating GLXMAW ([10]; rate 0.0156 kg/ha): 3.5; herbicidal rating GLXMAW ([10]; rate 0.0313 kg/ha): 4.0; herbicidal rating GLXMAW ([10]; rate 0.0625 kg/ha): 5.0; herbicidal rating CASOB ([11]; rate 0.0156 kg/ha): 0.0; herbicidal rating CASOB ([11]; rate 0.0313 kg/ha): 0.0; herbicidal rating CASOB ([11]; rate 0.0625 kg/ha): 0.0; Preemergence herbicidal rating ZEAMX ([12]; rate 0.1250 kg/ha): 0.0; Preemergence herbicidal rating ZEAMX ([12]; rate 0.2500 kg/ha): 0.0; Preemergence herbicidal rating CASOB ([13]; rate 0.1250 kg/ha): 0.0; Preemergence herbicidal rating CASOB ([13]; rate 0.2500 kg/ha): 1.0 |
| CSCCN1C(=O)CSC1=Nc1cc(-n2c(=O)cc(C(F)(F)F)n(C)c2=O)c(F)cc1Cl [Compound 157] | 0.0 | 2.0 | 2.5 | 3.0 | 0.0 | 4.0 | 0.0 | 0.0 | 0.0 | 2.0 | 0.0 | 1.0 | 7.0 | 0.0 | 1.0 | 2.0 | 2.0 | 2.0 | 5.0 | 2.0 | Preemergence herbicidal rating GALAP ([3]; rate 0.0313 kg/ha): 0.0; Preemergence herbicidal rating GALAP ([3]; rate 0.0625 kg/ha): 0.0; herbicidal rating CHEAL ([9]; rate 0.0313 kg/ha): 4.0; herbicidal rating CHEAL ([9]; rate 0.0625 kg/ha): 9.0; herbicidal rating GLXMAW ([10]; rate 0.0156 kg/ha): 4.5; herbicidal rating GLXMAW ([10]; rate 0.0313 kg/ha): 5.0; herbicidal rating GLXMAW ([10]; rate 0.0625 kg/ha): 7.5; herbicidal rating CASOB ([11]; rate 0.0156 kg/ha): 0.0; herbicidal rating CASOB ([11]; rate 0.0313 kg/ha): 0.0; herbicidal rating CASOB ([11]; rate 0.0625 kg/ha): 3.0; Preemergence herbicidal rating ZEAMX ([12]; rate 0.0313 kg/ha): 0.0; Preemergence herbicidal rating ZEAMX ([12]; rate 0.0625 kg/ha): 0.0; Preemergence herbicidal rating ZEAMX ([12]; rate 0.1250 kg/ha): 1.0; Preemergence herbicidal rating ZEAMX ([12]; rate 0.2500 kg/ha): 1.0; Preemergence herbicidal rating CASOB ([13]; rate 0.0313 kg/ha): 1.0; Preemergence herbicidal rating CASOB ([13]; rate 0.0625 kg/ha): 0.0; Preemergence herbicidal rating CASOB ([13]; rate 0.1250 kg/ha): 1.0; Preemergence herbicidal rating CASOB ([13]; rate 0.2500 kg/ha): 5.0 |
